According to ChEMBL document CHEMBL1150977, “A quantitative analysis of kinase inhibitor selectivity” (Nat Biotechnol, 2008):

Key:
[1] = target: Leukocyte tyrosine kinase receptor (Homo sapiens, UniProt P29376)
[2] = target: T1, NUAK family SNF1-like kinase 1 (Homo sapiens, UniProt O60285)
T1 sequence (O60285 whole entry): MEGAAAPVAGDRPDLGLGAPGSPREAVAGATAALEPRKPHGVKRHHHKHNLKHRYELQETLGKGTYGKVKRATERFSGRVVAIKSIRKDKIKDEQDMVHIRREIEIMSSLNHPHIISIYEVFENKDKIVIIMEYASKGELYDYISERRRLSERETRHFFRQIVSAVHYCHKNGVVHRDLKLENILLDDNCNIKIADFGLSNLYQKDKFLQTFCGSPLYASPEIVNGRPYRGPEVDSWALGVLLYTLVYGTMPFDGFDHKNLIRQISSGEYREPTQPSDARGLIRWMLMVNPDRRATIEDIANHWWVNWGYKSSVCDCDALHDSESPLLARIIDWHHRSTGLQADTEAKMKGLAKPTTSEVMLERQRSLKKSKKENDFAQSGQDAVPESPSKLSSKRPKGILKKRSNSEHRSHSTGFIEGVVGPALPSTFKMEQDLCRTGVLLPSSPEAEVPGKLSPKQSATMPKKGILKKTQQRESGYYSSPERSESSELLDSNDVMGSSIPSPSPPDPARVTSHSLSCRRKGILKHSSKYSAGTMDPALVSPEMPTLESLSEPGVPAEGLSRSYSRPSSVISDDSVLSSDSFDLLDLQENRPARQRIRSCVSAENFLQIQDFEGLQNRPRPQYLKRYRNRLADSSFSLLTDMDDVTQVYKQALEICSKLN

[3] = target: T2, Serine/threonine-protein kinase tousled-like 1 (Homo sapiens, UniProt Q9UKI8)
T2 sequence (Q9UKI8 whole entry): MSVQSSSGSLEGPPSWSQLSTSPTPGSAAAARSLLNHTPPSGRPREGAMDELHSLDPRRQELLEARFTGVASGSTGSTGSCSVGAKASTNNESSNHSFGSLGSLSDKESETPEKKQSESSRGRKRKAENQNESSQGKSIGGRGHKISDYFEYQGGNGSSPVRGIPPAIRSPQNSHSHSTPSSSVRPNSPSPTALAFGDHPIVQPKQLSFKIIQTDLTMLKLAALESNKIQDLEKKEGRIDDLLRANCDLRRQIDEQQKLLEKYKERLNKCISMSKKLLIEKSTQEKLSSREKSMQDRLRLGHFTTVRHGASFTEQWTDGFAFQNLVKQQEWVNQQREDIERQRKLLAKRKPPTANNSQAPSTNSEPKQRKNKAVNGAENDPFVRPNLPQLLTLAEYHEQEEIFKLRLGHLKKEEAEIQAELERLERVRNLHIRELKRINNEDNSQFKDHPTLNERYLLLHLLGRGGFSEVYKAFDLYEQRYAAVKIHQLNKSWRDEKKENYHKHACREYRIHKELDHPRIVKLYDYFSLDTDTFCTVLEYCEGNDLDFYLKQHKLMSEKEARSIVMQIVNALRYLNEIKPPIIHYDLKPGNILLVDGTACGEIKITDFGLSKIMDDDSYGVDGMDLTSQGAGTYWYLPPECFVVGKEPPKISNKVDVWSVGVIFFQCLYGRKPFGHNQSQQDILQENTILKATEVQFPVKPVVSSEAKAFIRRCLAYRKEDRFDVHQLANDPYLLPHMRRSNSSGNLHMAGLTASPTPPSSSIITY

[4] = target: T3, MAP/microtubule affinity-regulating kinase 4 (Homo sapiens, UniProt Q96L34)
T3 sequence (Q96L34 whole entry): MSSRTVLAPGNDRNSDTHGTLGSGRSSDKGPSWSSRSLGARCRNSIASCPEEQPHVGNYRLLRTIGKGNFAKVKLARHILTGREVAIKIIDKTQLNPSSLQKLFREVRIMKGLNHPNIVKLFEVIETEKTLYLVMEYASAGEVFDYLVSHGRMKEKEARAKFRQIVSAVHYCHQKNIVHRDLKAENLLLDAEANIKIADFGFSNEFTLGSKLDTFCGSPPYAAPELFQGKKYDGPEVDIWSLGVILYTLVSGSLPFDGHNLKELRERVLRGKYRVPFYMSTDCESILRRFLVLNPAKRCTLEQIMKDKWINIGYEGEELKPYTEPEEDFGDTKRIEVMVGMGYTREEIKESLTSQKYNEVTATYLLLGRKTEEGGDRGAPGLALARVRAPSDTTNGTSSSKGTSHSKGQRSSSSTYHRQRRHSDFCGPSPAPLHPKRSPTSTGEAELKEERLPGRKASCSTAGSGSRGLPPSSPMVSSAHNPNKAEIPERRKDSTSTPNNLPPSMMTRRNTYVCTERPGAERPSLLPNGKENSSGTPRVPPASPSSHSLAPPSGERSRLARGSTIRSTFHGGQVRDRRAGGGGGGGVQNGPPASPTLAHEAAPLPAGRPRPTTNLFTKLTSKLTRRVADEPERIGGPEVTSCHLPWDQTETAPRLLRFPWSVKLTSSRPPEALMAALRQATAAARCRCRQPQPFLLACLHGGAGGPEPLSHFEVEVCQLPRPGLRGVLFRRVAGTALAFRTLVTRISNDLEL

[5] = target: T4, cGMP-dependent protein kinase 1 (Homo sapiens, UniProt Q13976)
T4 sequence (Q13976 whole entry): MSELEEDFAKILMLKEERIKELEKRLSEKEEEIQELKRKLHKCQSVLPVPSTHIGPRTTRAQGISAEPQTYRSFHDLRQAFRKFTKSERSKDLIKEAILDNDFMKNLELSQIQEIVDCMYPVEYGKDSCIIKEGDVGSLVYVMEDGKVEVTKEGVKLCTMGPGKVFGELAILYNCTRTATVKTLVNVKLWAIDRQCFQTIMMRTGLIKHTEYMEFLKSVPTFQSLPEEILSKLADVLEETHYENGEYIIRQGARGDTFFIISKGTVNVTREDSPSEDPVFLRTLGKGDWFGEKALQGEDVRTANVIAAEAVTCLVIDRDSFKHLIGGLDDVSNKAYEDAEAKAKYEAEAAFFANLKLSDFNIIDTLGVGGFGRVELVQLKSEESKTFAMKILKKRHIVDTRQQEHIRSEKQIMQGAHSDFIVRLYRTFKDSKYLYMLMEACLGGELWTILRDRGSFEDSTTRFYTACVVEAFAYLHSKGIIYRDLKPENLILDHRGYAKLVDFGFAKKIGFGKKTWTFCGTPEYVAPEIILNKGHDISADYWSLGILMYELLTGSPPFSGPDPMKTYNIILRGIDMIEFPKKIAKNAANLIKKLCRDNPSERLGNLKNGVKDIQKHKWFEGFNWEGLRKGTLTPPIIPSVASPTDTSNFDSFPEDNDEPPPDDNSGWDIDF

[6] = target: Focal adhesion kinase 1 (Homo sapiens, UniProt Q05397)
Sequence of Focal adhesion kinase 1 (Q05397 whole entry): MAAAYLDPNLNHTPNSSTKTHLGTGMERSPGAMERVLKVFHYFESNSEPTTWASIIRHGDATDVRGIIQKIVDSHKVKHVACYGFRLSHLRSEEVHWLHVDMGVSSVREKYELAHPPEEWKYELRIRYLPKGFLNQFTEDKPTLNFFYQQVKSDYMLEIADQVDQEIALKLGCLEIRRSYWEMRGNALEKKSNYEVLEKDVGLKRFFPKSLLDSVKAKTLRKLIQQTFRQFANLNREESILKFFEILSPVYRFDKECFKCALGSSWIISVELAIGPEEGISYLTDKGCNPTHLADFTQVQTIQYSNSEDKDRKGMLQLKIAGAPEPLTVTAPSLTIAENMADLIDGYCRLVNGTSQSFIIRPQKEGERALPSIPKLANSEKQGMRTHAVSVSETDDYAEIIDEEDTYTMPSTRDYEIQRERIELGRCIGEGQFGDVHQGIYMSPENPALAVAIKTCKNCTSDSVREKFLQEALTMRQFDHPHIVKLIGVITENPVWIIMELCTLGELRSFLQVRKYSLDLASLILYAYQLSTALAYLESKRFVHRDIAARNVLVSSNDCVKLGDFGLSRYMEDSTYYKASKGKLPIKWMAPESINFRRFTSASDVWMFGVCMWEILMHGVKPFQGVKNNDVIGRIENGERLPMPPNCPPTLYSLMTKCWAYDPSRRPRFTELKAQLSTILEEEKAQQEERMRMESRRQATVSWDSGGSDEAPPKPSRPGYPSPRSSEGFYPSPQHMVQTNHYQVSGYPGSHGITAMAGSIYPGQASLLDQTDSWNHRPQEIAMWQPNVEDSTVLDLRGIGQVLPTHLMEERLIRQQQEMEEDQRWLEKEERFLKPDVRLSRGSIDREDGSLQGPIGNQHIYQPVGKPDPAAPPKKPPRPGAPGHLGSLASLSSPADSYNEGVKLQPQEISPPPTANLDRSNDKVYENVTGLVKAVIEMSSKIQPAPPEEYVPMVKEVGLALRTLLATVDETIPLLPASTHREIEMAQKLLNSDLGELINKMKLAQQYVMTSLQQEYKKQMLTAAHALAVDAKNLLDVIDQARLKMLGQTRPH

Measured: Kd

Sequence of Leukocyte tyrosine kinase receptor (P29376 whole entry): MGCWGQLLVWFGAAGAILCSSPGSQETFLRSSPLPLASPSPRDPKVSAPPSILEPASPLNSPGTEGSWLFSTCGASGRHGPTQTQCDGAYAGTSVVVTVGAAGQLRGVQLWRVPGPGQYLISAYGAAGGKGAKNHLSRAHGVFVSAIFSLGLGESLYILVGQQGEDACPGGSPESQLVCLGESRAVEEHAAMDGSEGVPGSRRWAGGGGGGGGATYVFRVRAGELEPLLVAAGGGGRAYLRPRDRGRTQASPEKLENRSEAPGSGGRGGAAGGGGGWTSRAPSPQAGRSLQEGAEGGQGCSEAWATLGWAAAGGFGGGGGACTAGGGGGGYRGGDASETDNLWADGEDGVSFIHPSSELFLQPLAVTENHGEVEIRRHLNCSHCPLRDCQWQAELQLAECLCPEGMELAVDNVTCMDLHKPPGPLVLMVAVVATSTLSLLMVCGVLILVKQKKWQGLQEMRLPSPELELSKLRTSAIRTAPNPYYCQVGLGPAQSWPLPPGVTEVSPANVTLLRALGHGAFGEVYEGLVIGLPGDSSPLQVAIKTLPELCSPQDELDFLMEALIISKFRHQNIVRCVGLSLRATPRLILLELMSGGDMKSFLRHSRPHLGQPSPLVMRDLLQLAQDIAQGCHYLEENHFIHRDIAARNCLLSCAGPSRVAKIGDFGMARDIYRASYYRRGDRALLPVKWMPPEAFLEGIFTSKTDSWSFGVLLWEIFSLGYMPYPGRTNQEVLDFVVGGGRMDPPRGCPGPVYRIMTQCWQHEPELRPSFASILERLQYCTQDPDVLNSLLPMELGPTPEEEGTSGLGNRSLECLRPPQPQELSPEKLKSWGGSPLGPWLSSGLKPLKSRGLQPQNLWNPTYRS

CCOc1cc2ncc(C#N)c(Nc3ccc(F)c(Cl)c3)c2cc1NC(=O)/C=C/CN(C)C [PELITINIB]
not listed: [6]
> 10 µM: all other assays above

COCC(=O)NC/C=C/c1ccc2ncnc(Nc3ccc(Oc4ccc(C)nc4)c(C)c3)c2c1 [CP-724714]
> 10 µM: all assays above

NC(=O)c1ccc(-c2nc(-c3ccc4c(c3)OCO4)c(-c3ccccn3)[nH]2)cc1 [SB-431542]
> 10 µM: all assays above

Nc1nc(Nc2ccc(S(N)(=O)=O)cc2)nn1C(=O)c1c(F)cccc1F [JNJ-7706621]
> 10 µM: [1] | [5]

Oc1ccc(-c2nc(-c3ccncc3)c(-c3ccc(F)cc3)[nH]2)cc1 [SB-202190]
> 10 µM: all assays above
